Measured values published in patent US20130165428A1, “XANTHINE DERIVATIVES, THE PREPARATION THEREOF AND THEIR USE AS PHARMACEUTICAL COMPOSITIONS” (Boehringer Ingelheim Pharma GmbH & Co. KG, priority 2001, published 2013).

Molecular target: T1, DPP-IV (Homo sapiens, UniProt P27487)
T1 construct: an extract of the human colon carcinoma cell line Caco-2 is used as the DPP IV source; host or cells: Caco-2 (differentiated to induce DPP-IV expression), Nonidet-P40 solubilised extract
Assay: DPP-IV assay with extract of Caco-2 cells as DPP IV source
Format: biochemical
Details: extract of human colon carcinoma cell line Caco-2 as DPP IV source, substrate AFC 100 μM, 60 minutes, ambient temperature; read-out: DPP IV inhibition IC50
Method: This cell line was obtained from the American Type Culture Collection (ATCC HTB 37). […] The cell extract was obtained from cells solubilised in a buffer (10 mM Tris HCl, 0.15 M NaCl, 0.04 t.i.u. aprotinin, 0.5% Nonidet-P40, pH 8.0) by centrifugation at 35,000 g for 30 minutes at 4° C. (to remove cell debris).
The DPP-IV assay was carried out as follows:
50 μl of substrate solution (AFC; AFC is amido-4-trifluoromethylcoumarin), final concentration 100 μM, were placed in black microtitre plates. 20 μl of assay buffer (final concentrations 50 mM Tris HCl pH 7.8, 50 mM NaCl, 1% DMSO) was pipetted in. The reaction was started by the addition of 30 μl of solubilised Caco-2 protein (final concentration 0.14 μg of protein per well). The test substances under investigation were typically added prediluted to 20 μl, while the volume of assay buffer was then reduced accordingly. The reaction was carried out at ambient temperature, the incubation period was 60 minutes. […] Dummy values (corresponding to 0% activity) were obtained in mixtures with no Caco-2 protein (volume replaced by assay buffer), control values (corresponding to 100% activity) were obtained in mixtures without any added substance.

T1 sequence (P27487 whole entry): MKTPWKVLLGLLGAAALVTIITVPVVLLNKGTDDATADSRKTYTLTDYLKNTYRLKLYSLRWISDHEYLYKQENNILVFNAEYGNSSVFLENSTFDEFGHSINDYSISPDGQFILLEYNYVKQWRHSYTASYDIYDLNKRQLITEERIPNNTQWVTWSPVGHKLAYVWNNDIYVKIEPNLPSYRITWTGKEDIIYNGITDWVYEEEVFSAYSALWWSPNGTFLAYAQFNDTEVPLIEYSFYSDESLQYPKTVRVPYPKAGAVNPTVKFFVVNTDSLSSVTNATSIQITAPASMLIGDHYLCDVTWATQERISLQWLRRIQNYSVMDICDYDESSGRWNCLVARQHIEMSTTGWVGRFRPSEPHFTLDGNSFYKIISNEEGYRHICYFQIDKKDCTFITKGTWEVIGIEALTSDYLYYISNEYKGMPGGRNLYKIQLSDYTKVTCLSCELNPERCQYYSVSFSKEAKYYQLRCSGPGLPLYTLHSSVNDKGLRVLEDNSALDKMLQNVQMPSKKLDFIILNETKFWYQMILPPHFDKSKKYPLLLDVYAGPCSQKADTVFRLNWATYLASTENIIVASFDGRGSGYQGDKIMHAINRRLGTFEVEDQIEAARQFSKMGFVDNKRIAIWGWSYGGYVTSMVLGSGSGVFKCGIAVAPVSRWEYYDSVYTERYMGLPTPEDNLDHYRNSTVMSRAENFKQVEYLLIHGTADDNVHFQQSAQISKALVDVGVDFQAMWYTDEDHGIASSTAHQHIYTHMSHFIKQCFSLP

Question: With `COCCn1c(=O)c2c(nc(N3CCCC(N)C3)n2CC=C(C)C)n(C)c1=O` (stereo not drawn) [1(28), 1-(2-methoxyethyl)-3-methyl-7-(3-methyl-2-buten-1-yl)-8-(3-amino-piperidin-1-yl)-xanthine] as the compound, how does the IC50 read?
Answer: 0.166 µM

Question: How did the IC50 turn out when `CC(C)=CCn1c(N2CCCC(N)C2)nc2c1c(=O)n(CCN(C)C)c(=O)n2C` (stereo not drawn) [1(30), 1-[2-(dimethylamino)ethyl]-3-methyl-7-(3-methyl-2-buten-1-yl)-8-(3-amino-piperidin-1-yl)-xanthine] was run?
Answer: 2.05 µM

Question: `CCn1c(=O)n(C)c(=O)c2c1nc(N1CCCC(N)C1)n2Cc1ccccc1` (stereo not drawn) [1(34), 1-methyl-3-ethyl-7-benzyl-8-(3-amino-piperidin-1-yl)-xanthine] was tested. Which IC50 did it give?
Answer: 0.205 µM

Question: For `CC(C)=CCn1c(N(C)CCN)nc2c1c(=O)n(C)c(=O)n2C` [1(35), 1,3-dimethyl-7-(3-methyl-2-buten-1-yl)-8-[N-(2-aminoethyl)-methylamino]-xanthine], which IC50 is on record?
Answer: 0.095 µM

Question: With `CC(C)=CCn1c(N2CCCC(N)C2)nc2c1c(=O)n(CCc1cccc(C)c1)c(=O)n2C` (stereo not drawn) [1(55), 1-[2-(3-methyl-phenyl)-ethyl]-3-methyl-7-(3-methyl-2-buten-1-yl)-8-(3-amino-piperidin-1-yl)-xanthine] as the compound, how does the IC50 read?
Answer: 0.142 µM

Question: With `Cc1cccc(-n2c(N3CCCC(N)C3)nc3c2c(=O)n(C)c(=O)n3C)c1` (stereo not drawn) [1(62), 1,3-dimethyl-7-(3-methyl-phenyl)-8-(3-amino-piperidin-1-yl)-xanthine] as the compound, how does the IC50 read?
Answer: 0.167 µM

Question: How did the IC50 turn out when `Cn1c(=O)c2c(nc(N3CCCC(N)C3)n2Cc2ccccc2)n(CCc2ccccc2)c1=O` (stereo not drawn) [1(70), 1-methyl-3-(2-phenyl-ethyl)-7-benzyl-8-(3-amino-piperidin-1-yl)-xanthine] was run?
Answer: 0.032 µM

Question: `CC(C)=CCn1c(N2CCCNCC2)nc2c1c(=O)n(CCc1ccccc1)c(=O)n2C` [1(97), 1-(2-phenyl-ethyl)-3-methyl-7-(3-methyl-2-buten-1-yl)-8-(homopiperazin-1-yl)-xanthine] was tested. Which IC50 did it give?
Answer: 0.212 µM

Question: With `Cn1c(=O)c2c(nc(N3CCCC(N)C3)n2Cc2ccccc2C#N)n(C)c1=O` (stereo not drawn) [1(121), 1,3-dimethyl-7-(2-cyano-benzyl)-8-(3-amino-piperidin-1-yl)-xanthine] as the compound, how does the IC50 read?
Answer: 0.01 µM

Question: How did the IC50 turn out when `CC(C)=CCn1c(N2CCCC(N)C2)nc2c1c(=O)n(C)c(=O)n2CC(=O)c1ccccc1` (stereo not drawn) [2(56), 1-methyl-3-(2-phenyl-2-oxo-ethyl)-7-(3-methyl-2-buten-1-yl)-8-(3-amino-piperidin-1-yl)-xanthine] was run?
Answer: 0.064 µM

Question: For `CC(C)=CCn1c(N2CCCC(N)C2)nc2c1c(=O)n(C)c(=O)n2CCc1ccc(F)cc1` (stereo not drawn) [2(77), 1-methyl-3-[2-(4-fluoro-phenyl)-ethyl]-7-(3-methyl-2-buten-1-yl)-8-(3-amino-piperidin-1-yl)-xanthine], which IC50 is on record?
Answer: 0.022 µM

Question: For `C#CCOc1cccc(C(=O)Cn2c(=O)c3c(nc(N4CCCC(N)C4)n3CC=C(C)C)n(C)c2=O)c1` (stereo not drawn) [2(85), 1-{2-oxo-2-[3-(2-propyn-1-yloxy)-phenyl]-ethyl}-3-methyl-7-(3-methyl-2-buten-1-yl)-8-(3-amino-piperidin-1-yl)-xanthine], which IC50 is on record?
Answer: 0.017 µM

Question: Which IC50 does the source give for `CC(C)=CCn1c(N2CCCC(N)C2)nc2c1c(=O)n(CC(=O)c1cccc(OCC#N)c1)c(=O)n2C` (stereo not drawn) [2(88), 1-[2-(3-cyanomethoxy-phenyl)-2-oxo-ethyl]-3-methyl-7-(3-methyl-2-buten-1-yl)-8-(3-amino-piperidin-1-yl)-xanthine] here?
Answer: 0.006 µM

Question: Which IC50 does the source give for `CC(C)=CCn1c(N2CCCC(N)C2)nc2c1c(=O)n(Cc1ccccn1)c(=O)n2C` (stereo not drawn) [2(113), 1-[(pyridin-2-yl)methyl]-3-methyl-7-(3-methyl-2-buten-1-yl)-8-(3-amino-piperidin-1-yl)-xanthine] here?
Answer: 0.02 µM

Question: How did the IC50 turn out when `CC(C)=CCn1c(N2CCCC(N)C2)nc2c1c(=O)n(Cc1cccc3ccccc13)c(=O)n2C` (stereo not drawn) [2(127), 1-[(1-naphthyl)methyl]-3-methyl-7-(3-methyl-2-buten-1-yl)-8-(3-amino-piperidin-1-yl)-xanthine] was run?
Answer: 0.022 µM
